Data on nine molecules can be found in ChEMBL document CHEMBL5252637, “Identification of a new class of proteasome inhibitors based on a naphthyl-azotricyclic-urea-phenyl scaffold” (RSC Med Chem, 2023).

SMILES strings stand for the structures.

Test [1] deals with T1, Proteasome Macropain subunit MB1 (Homo sapiens, UniProt P28074).
T1 sequence (P28074 whole entry): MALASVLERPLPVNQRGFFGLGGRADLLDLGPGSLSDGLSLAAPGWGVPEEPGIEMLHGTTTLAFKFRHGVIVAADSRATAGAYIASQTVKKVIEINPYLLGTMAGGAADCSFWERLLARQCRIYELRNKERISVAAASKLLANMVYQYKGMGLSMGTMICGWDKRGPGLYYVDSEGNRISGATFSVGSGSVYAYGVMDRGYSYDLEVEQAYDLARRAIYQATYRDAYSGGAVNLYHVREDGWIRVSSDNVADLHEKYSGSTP
The test is described as follows: Inhibition of human 20S constitutive proteosome beta5c subunit using Suc-LLVY-AMC as substrate measured after 10 mins by fluorescence based analysis.

Test [2] concerns the target T1, Proteasome Macropain subunit MB1. The test can be described thus: Competitive inhibition of human 20S constitutive proteosome beta5c subunit using Suc-LLVY-AMC as substrate measured after 10 mins by fluorescence based analysis.

`O=C(Nc1ccc(Cl)cc1)Nc1ccc2n(c1=O)C[C@@H]1C[C@H]2CN(C(=O)c2ccc3ccccc3c2)C1`: the IC50 in test [1] worked out at 3.43 µM. This molecule showed a Ki in test [2] of 1.14 µM.

`COc1ccccc1NC(=O)Nc1ccc2n(c1=O)C[C@@H]1C[C@H]2CN(C(=O)c2ccc3ccccc3c2)C1`: the IC50 in test [1] was determined as 6.65 µM. Besides, the affinity in test [2] corresponds to a Ki of 4.6 µM.

`COc1ccccc1NC(=O)Nc1ccc2n(c1=O)C[C@@H]1C[C@H]2CN(C(=O)c2ccccn2)C1`: the IC50 in test [1] is 560 µM.

Consider `O=C(Nc1ccccc1)Nc1ccc2n(c1=O)C[C@@H]1C[C@H]2CN(C(=O)c2ccccn2)C1`, for which the IC50 in test [1] is more than 500 µM.

Regarding `N#Cc1cccc(NC(=O)Nc2ccc3n(c2=O)C[C@@H]2C[C@H]3CN(C(=O)c3ccccc3)C2)c1`, the IC50 in test [1] came to 201 µM.

With `N#Cc1cccc(NC(=O)Nc2ccc3n(c2=O)C[C@@H]2C[C@H]3CN(C(=O)c3cccnc3)C2)c1`, the IC50 in test [1] is 440 µM.

In test [1], `CC(=O)N1C[C@H]2C[C@@H](C1)c1ccc(NC(=O)Nc3cccc(C#N)c3)c(=O)n1C2` showed an IC50 of 491 µM.

In test [1], `O=C(Nc1ccccc1)Nc1ccc2n(c1=O)C[C@@H]1C[C@H]2CN(C(=O)c2ccc3ccccc3c2)C1` gave an IC50 of 11.1 µM. The molecule also yielded a Ki in test [2] of 9.69 µM.

`N#Cc1cccc(NC(=O)Nc2ccc3n(c2=O)C[C@@H]2C[C@H]3CN(C(=O)c3ccc4ccccc4c3)C2)c1`: in test [1], the IC50 is 10.3 µM. The same molecule registered a Ki in test [2] of 3.42 µM.
